In paper PMC10856618, “Research on the Interaction Mechanism and Structural Changes in Human Serum Albumin with Hispidin Using Spectroscopy and Molecular Docking” (Molecules, 2024):

Molecular target: T1, human serum albumin (HSA) (Homo sapiens, UniProt P02768)
T1 construct: gene ALB; commercial HSA (Solarbio), mature plasma protein, 585 residues, 66,500 Da
Test: intrinsic fluorescence quenching titration (ex […] nm)
Format: binding
Details: 298 K, pH 7.4 Tris-HCl, 0.1 mol/L NaCl, 5 µmol/L HSA; n = 1.04; double-log; mainly site I (subdomain IIA)

T1 sequence (P02768 25-609): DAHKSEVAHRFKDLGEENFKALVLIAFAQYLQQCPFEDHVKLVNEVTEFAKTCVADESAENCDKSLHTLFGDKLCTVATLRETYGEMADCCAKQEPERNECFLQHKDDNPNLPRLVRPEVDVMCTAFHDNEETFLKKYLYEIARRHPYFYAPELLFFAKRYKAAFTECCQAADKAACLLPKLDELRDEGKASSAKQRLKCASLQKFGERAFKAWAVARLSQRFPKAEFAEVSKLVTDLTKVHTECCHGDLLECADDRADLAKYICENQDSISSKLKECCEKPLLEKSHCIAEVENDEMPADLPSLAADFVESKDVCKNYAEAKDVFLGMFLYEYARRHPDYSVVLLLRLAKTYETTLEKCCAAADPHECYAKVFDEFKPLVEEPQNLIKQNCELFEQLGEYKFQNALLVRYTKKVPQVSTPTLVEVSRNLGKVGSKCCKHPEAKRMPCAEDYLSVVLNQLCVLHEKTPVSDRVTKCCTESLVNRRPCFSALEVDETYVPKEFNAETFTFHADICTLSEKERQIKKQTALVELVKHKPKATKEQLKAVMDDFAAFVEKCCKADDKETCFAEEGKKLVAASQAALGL

## O=c1cc(O)cc(/C=C/c2ccc(O)c(O)c2)o1 [hispidin]
  Ka (10^5 L/mol): 1.03 × 10^5 L/mol
